Data from BigSolDB 2.1.

NC(N)=NCCC[C@H](NC(=O)OCc1ccccc1)C(=O)O
solubility (mole fraction)
Settings | 283.15 K | 288.15 K | 293.15 K | 298.15 K | 303.15 K | 313.15 K | 323.15 K
in 2-butanone | 9.88e-05 | – | 0.000118 | – | 0.000136 | 0.000164 | 0.000196
in DMF | 0.00164 | – | 0.00346 | – | 0.00597 | 0.00993 | 0.0183
in acetone | 2.5e-05 | – | 4.7e-05 | – | 5.73e-05 | 6.89e-05 | 9.91e-05
in acetonitrile | 1.5e-05 | – | 2.71e-05 | – | 3.52e-05 | 4.03e-05 | 4.82e-05
in dichloromethane | 8.03e-05 | 0.000103 | 0.000144 | 0.000183 | 0.000233 | – | –
in ethanol | 0.000193 | – | 0.000255 | – | 0.000379 | 0.000558 | 0.000898
in ethyl acetate | 4.73e-05 | – | 6.24e-05 | – | 7.31e-05 | 8.72e-05 | 9.78e-05
in isopropanol | 7.15e-05 | – | 0.000127 | – | 0.000163 | 0.000223 | 0.000275
in methanol | 0.000468 | – | 0.000602 | – | 0.00107 | 0.00137 | 0.00207
in n-butanol | 6.05e-05 | – | 0.000103 | – | 0.000141 | 0.000178 | 0.000239
in n-hexane | 4.3e-05 | – | 5.7e-05 | – | 7.42e-05 | 8.12e-05 | 0.000119
in water | 0.000198 | – | 0.000307 | – | 0.000417 | 0.000663 | 0.00104
